pIC50: −log10 of the molar value. Like-named read-outs stand apart in the source and are kept apart here.

One data set concerns B16-F10 (mouse melanoma). Nature of the data set: Alamar Blue cytotoxicity assay, B16-F10. Particulars: 72 h incubation; for pIC50: value in brackets. In kind it is cell-based. The text has this:
(§1) Camargo, São Paulo, Brazil.
(Alamar Blue is a resazurin reagent that responds to reducing activity.)

Data set [1] concerns HepG2 (human hepatocellular carcinoma). Nature of the data set: Alamar Blue cytotoxicity assay, HepG2. The class given is cell-based. Particulars: 72 h incubation; for pIC50: value in brackets.
Text: as §1

The subject of data set [2] is HL-60 (human promyelocytic leukemia). Nature of the data set: Alamar Blue cytotoxicity assay, HL-60. As to conditions: Homo sapiens, HL-60, Alamar Blue, 72 h incubation, read-out: IC50 HL60; for pIC50: value in brackets. The class given is cell-based.
Procedure: (§3) B16-F10, HepG2, K562 and HL-60 tumor cell lines were kindly donated by Hospital A.C. […] Cells were maintained in RPMI 1640 medium (Gibco-BRL, Gaithersburg, MD, USA) with 10% fetal bovine serum (Cultilab, Campinas, Brazil), 2 mM L-glutamine (Vetec Química Fina, Duque de Caxias, Brazil) and 50 μg/mL gentamycin (Novafarma, Anápolis, Brazil). Adherent cells were collected by treatment with 0.25% trypsin-EDTA solution (Gibco-BRL). All cell lines were cultured in flasks at 37 °C in 5% CO2 and sub-cultured every 3–4 days to maintain exponential growth. All cell lines were tested for mycoplasma using a Mycoplasma Stain Kit (Sigma-Aldrich, St. Louis, MO, USA) to confirm that the cells were free from contamination.
(§4) Cell viability was quantified using the Alamar Blue assay, according to Ahmed et al. [23]. Cells were placed in 96-well plates for all experiments (0.7 × 10^5 cells/mL for adherent cells or 0.3 × 10^6 cells/mL for suspended cells in 100 μL of medium). After 24 h, the alkaloids (in a range of eight different concentrations varying from 0.19 to 25 μg/mL) were dissolved in dimethyl sulfoxide (DMSO, Sigma-Aldrich Co.), and the solution was added to each well and incubated for 72 h. […] Negative controls received the vehicle that was used for diluting the alkaloids (0.5% DMSO). Four (for cell lines) or 24 h (for PBMCs) before the end of incubation, 20 μL of a stock solution (0.312 mg/mL) of the Alamar Blue (resazurin, Sigma-Aldrich Co.) was added to each well. The absorbance at 570 nm and 600 nm was measured using a SpectraMax 190 Microplate Reader (Molecular Devices, Sunnyvale, CA, USA), and the drug effect was quantified as the percentage of control absorbance.
The subject of data set [3] is K562 (human chronic myelocytic leukemia). Kind of data set: Alamar Blue cytotoxicity assay, K562. In kind it is cell-based. As to conditions: 72 h incubation; for pIC50: value in brackets.
Text: as §1

Data set [4] deals with peripheral blood mononuclear cells (PBMCs). Kind of data set: Alamar Blue cytotoxicity assay, non-tumor PBMCs. The class given is cell-based. Particulars: Homo sapiens, PBMC, 72 h incubation, ConA-stimulated PBMCs; for pIC50: value in brackets. On the procedure: Heparinized blood was collected from 20- to 35-year-old, healthy non-smokers who had not taken any drugs for at least 15 days prior to sampling, and the peripheral blood mononuclear cells (PBMCs) were isolated using a Ficoll density gradient in a Ficoll-Paque Plus (GE Healthcare Bio-Sciences AB, Uppsala, Sweden). PBMCs were washed and resuspended at a concentration of 0.3 × 10^6 cells/mL in RPMI 1640 medium with 20% fetal bovine serum, 2 mM L-glutamine and 50 μg/mL gentamycin at 37 °C with 5% CO2. Concanavalin A (ConA, Sigma-Aldrich Co.) was used as a mitogen to trigger cell division in T-lymphocytes. ConA (10 μg/mL) was added at the beginning of culture, and the cells were treated with the test compounds after 24 h. Cell viability was examined using a trypan blue exclusion assay for all experiments. Over 90% of the cells were viable at the beginning of the culture. The Research Ethics Committee of the Oswaldo Cruz Foundation (Salvador, Bahia, Brazil) approved the experimental protocol (#031019/2013). All participants signed a written informed consent to participate in the study.

Data set [5] in a line: Alamar Blue cytotoxicity assay, summary over the tumor cell lines tested. Particulars: mouse (B16-F10); human (HepG2, K562, HL-60).
Procedure: as §3, §4
Data set [6] deals with tumor cell lines B16-F10, HepG2, K562 and HL-60. The description is as above. Particulars: 72 h, read-out: IC50 in at least one of the tumor cell lines tested.
Procedure: as §3, §4
The subject of data set [7] is HepG2 cells. Kind of data set: Annexin assay (phosphatidylserine externalization, flow cytometry), HepG2. In kind it is cell-based, human. Particulars: HepG2, 24 h; doxorubicin 1 μg/mL, positive control. On the procedure:
(§2) The following set of experiments was performed to investigate the mechanisms involved in the cytotoxic action of the alkaloids lanuginosine and (+)-xylopine. In all experiments, 2 mL of a HepG2 cell solution (0.7 × 10^5 cells/mL) was placed in 24-well plates and incubated overnight to allow the cells to adhere to the plate surface. The cells were then treated for 24 h with the alkaloids lanuginosine (10 and 20 μg/mL) and (+)-xylopine (5 and 10 μg/mL). The negative control was treated with the vehicle (0.2% DMSO) used for diluting the alkaloids. […] Cell viability was assessed for all experiments using a Trypan Blue exclusion assay.
Phosphatidylserine externalization was analyzed by flow cytometry. A FITC annexin V apoptosis detection kit (BD Biosciences, San Jose, CA, USA) was used to determine cell viability (viable, early apoptotic, late apoptotic and necrotic cells). Cells were washed twice with saline and then resuspended in 100 μL of binding buffer with 5 μL of propidium iodide and 5 μL of FITC annexin V. The cells were gently mixed on a vortexer and incubated for 15 min at room temperature (20–25 °C) in the dark. Afterwards, 400 μL of binding buffer was added to each tube and the cells were analyzed by flow cytometry on a BD LSRFortessa cytometer using BD FACSDiva Software (BD Biosciences) and Flowjo Software 10 (Flowjo LCC, Ashland, OR, USA). Ten thousand events were evaluated per experiment and cellular debris was omitted from the analysis.

Data set [8] deals with HepG2 cells. Nature of the data set: Internucleosomal DNA fragmentation and cell cycle distribution (flow cytometry, propidium iodide), HepG2. In kind it is cell-based, human. As to conditions: HepG2, 24 h, 1 µg/mL. On the procedure: as §2
Cells were harvested in a lysis solution containing 0.1% triton X-100 (Sigma Chemical Co., St. Louis, MO, USA), 2 µg/mL propidium iodide (Sigma Chemical Co.), 0.1% sodium citrate and 100 µg/mL RNAse (Sigma Chemical Co.). Cell fluorescence was determined by flow cytometry on a BD LSRFortessa cytometer using BD FACSDiva Software (BD Biosciences) and Flowjo Software 10. Ten thousand events were evaluated per experiment and cellular debris was omitted from the analysis.
For orientation: A flow cytometer gives signals particle by particle.

As usually defined, the IC50 is the midpoint of a concentration-inhibition curve. Turning to `COc1cc2c(cc1OC)-c1c(OC)c(OC)cc3c1[C@H](C2)N(C)CC3` [(+)-Glaucine, (+)-glaucine], the IC50 (in the data set on B16-F10 (mouse melanoma); in data set [1]; in data set [2]; in [3]; in data set [4]) was over 25 mg/L throughout. Further, the IC50 at 72 h in [5] is over 25 mg/L.

As a reminder, the pIC50 is the IC50 on a negative log10 scale, so that one unit is a factor of ten. Turning to `COc1cc2c(cc1OC)-c1c(OC)c(OC)c(OC)c3c1C(C2)NCC3` (single isomer, unassigned; (+)) [(+)-Norpurpureine, (+)-norpurpureine], the IC50 in the data set on B16-F10 (mouse melanoma) is 21.1 mg/L; in data set [1], over 25 mg/L; in data set [2] it was 10.1 mg/L; in [3], 16.7 mg/L; in data set [4], 17.9 mg/L; in data set [6] it was under 20 mg/L. Further, the pIC50 was 4.25 with B16-F10 (mouse melanoma), 4.57 in [2], 4.35 in data set [3] and 4.32 in [4].

Turning to `COc1cc2c(cc1OC)-c1c(OC)c(OC)cc3ccnc(c13)C2=O` [Oxoglaucine, oxoglaucine], the IC50 in the data set with B16-F10 (mouse melanoma) was 19.1 mg/L; in data set [1], over 25 mg/L; in [2], 5.9 mg/L; in [3], 12.5 mg/L; in data set [4], 10.2 mg/L; in data set [6] it was under 20 mg/L. Moreover, the pIC50 was 4.26 with B16-F10 (mouse melanoma), 4.78 in [2], 4.45 in [3] and 4.54 in [4].

`COc1cc2c(cc1O)CCN1Cc3cc(OC)c(OC)cc3C[C@@H]21` [(+)-Discretine, (+)-discretine]: the IC50 in the data set with B16-F10 (mouse melanoma) is 16.1 mg/L; in data set [1], 7.89 mg/L; in data set [2] it was 13 mg/L; in [3], 14.8 mg/L; in data set [4] it was over 25 mg/L; in data set [6], under 20 mg/L. For the same compound, the pIC50 in the data set on B16-F10 (mouse melanoma) was 4.33; in data set [1], 4.64; in [2], 4.42; in data set [3], 4.36.

As for `COc1cccc2c1C(=O)c1c(O)c3c(c(O)c1C2=O)C[C@@](O)(C(=O)CO)C[C@@H]3O[C@H]1C[C@H](N)[C@H](O)[C@H](C)O1` [Doxorubicin, doxorubicin, reference compound], the IC50 turned out to be 0.08 mg/L in the data set on B16-F10 (mouse melanoma); 0.08 mg/L in [1]; 0.09 mg/L in data set [2]; 0.15 mg/L in [3]; 2.47 mg/L in data set [4]. For the same compound, the pIC50 is 6.82 with B16-F10 (mouse melanoma), 6.82 in [1], 6.55 in data set [3] and 5.34 in [4]. Also, in the data set on HepG2 cells [7], the “apoptotic characteristics in the cells” value is recorded as “induced apoptotic characteristics”. For the same compound, in the data set with HepG2 cells [8] (NC 16.11 ± 1.89), the “Cell Cycle Phases (%) S” value stood at 12.00 ± 1.43 %. For the same compound, the “Cell Cycle Phases (%) G2/M” value in the data set on HepG2 cells [8] (NC 19.93 ± 6.12) worked out at 61.94 ± 5.52 %.

With `COc1cc2c(cc1O)C[C@@H]1NCCc3cc(OC)c(OC)c-2c31` [(+)-Laurotetanine, (+)-laurotetanine], the IC50 (in the data set on B16-F10 (mouse melanoma); in [1]; in data set [2]; in [3]; in data set [4]) was over 25 mg/L in each case. Further, in data set [5], the IC50 at 72 h is over 25 mg/L.

Regarding `CN1CCc2cc3c(c4c2[C@H]1Cc1ccccc1-4)OCO3` [(−)-Roemerine, (−)-roemerine], the IC50 (in the data set on B16-F10 (mouse melanoma); in data set [1]; in [2]; in data set [3]; in data set [4]) was over 25 mg/L each time. In data set [5], this compound came in with an IC50 at 72 h of over 25 mg/L.

With `c1ccc2c(c1)C[C@H]1NCCc3cc4c(c-2c31)OCO4` [(+)-Anonaine, (+)-anonaine], the IC50 in the data set on B16-F10 (mouse melanoma) was 18.8 mg/L; in data set [1], 14 mg/L; in data set [2], 10.1 mg/L; in data set [3] it was 10.6 mg/L; in [4] it was over 25 mg/L; in data set [6], under 20 mg/L. The pIC50 in the data set with B16-F10 (mouse melanoma) was 4.15; in data set [1] it was 4.28; in data set [2], 4.42; in data set [3], 4.40.

With `COc1cc2c(cc1O)CCN1Cc3c(ccc(O)c3OC)CC21` (single isomer, unassigned; (+)) [(+)-Discretamine, (+)-discretamine], the IC50 was 18.8 mg/L in the data set with B16-F10 (mouse melanoma); 14 mg/L in data set [1]; 10.1 mg/L in data set [2]; 10.6 mg/L in [3]; over 25 mg/L in data set [4]; under 20 mg/L in [6]. Besides, the pIC50 with B16-F10 (mouse melanoma) is 4.24; in [1] it was 4.37; in data set [2], 4.51; in data set [3], 4.49.

As to `COc1cc2c(cc1O)CC1c3cc(OC)c(OC)cc3CCN1C2` (single isomer, unassigned; (-)) [(−)-Corytenchine, (−)-corytenchine], the IC50 (in the data set on B16-F10 (mouse melanoma); in data set [1]; in data set [2]; in [3]; in [4]) was over 25 mg/L each time. This compound registered an IC50 at 72 h in [5] of over 25 mg/L.

For the compound `COc1cc2c(cc1OC)CN1CCc3cc(OC)c(OC)cc3[C@@H]1C2` [(−)-Xylopinine, (−)-xylopinine], the IC50 (in the data set on B16-F10 (mouse melanoma); in data set [1]; in data set [2]; in data set [3]; in data set [4]) was over 25 mg/L each time. This compound came in with an IC50 at 72 h in [5] of over 25 mg/L.

With `COC1=C[C@]23CCN(C)[C@H](Cc4cc(OC)c(O)cc42)C3=CC1=O` [(+)-Flavinantine, (+)-flavinantine], the IC50 (in the data set on B16-F10 (mouse melanoma); in [1]; in data set [2]; in data set [3]; in data set [4]) was over 25 mg/L throughout. The compound also showed an IC50 at 72 h in data set [5] of over 25 mg/L.

In the case of `COc1ccc(CC2c3cc(O)c(OC)cc3CCN2C)cc1O` (single isomer, unassigned; (+)) [(+)-Reticuline, (+)-reticuline], the IC50 is over 25 mg/L in the data set with B16-F10 (mouse melanoma); 15.3 mg/L in data set [1]; 23.8 mg/L in data set [2]; over 25 mg/L in data set [3]; over 25 mg/L in [4]; under 20 mg/L in data set [6]. In addition, the pIC50 is 4.33 in [1] and 4.14 in data set [2].

In the case of `COc1cc(O)c2c(c1)C[C@@H]1NCCc3cc4c(c-2c31)OCO4` [(+)-Calycinine, (+)-calycinine], the IC50 with B16-F10 (mouse melanoma) is 22.2 mg/L; in data set [1], over 25 mg/L; in data set [2], 18.6 mg/L; in [3] it was over 25 mg/L; in data set [4], over 25 mg/L; in [6], under 20 mg/L. The pIC50 is 4.15 with B16-F10 (mouse melanoma) and 4.23 in [2].

`COc1cc2c(cc1O)CC1c3c(cc(OC)c(OC)c3-2)CCN1C` (single isomer, unassigned; (+)) [(+)-N-Methyllaurotetanine, (+)-N-methyllaurotetanine]: the IC50 (in the data set on B16-F10 (mouse melanoma); in data set [1]; in [2]; in [3]; in data set [4]) was over 25 mg/L throughout. Besides, the IC50 at 72 h in data set [5] was over 25 mg/L.

The values are drawn from article PMC6273342, “Cytotoxic Alkaloids from the Stem of Xylopia laevigata” (Molecules, 2016).
